How the values were obtained:
Format in all cases: biochemical
Conditions in all cases: 1 μM inhibitor concentration
MKK1 = MKK1 (Homo sapiens (Human), UniProt Q02750); assay: MKK1 kinase selectivity assay
Protocol: After incubating at room temperature for 30 min, 5 μl from the first reaction is pipetted into 20 μl of the second reaction mix containing (final concentration) 25 mM Tris pH 7.5, 0.1 mM EGTA, 0.1 mM Na3VO4, 0.66 mg/ml myelin basic protein (MBP), 10 mM magnesium acetate and 0.05 mM [33P-g-ATP] (500-1000 cpm/pmole) and incubated for 30 min at room temperature. Assays are stopped by addition of 5 μl of 0.5 M (3%) orthophosphoric acid and then harvested onto P81 Unifilter plates with a wash buffer of 50 mM orthophosphoric acid.

EPH-A2 = EPH-A2 (Homo sapiens (Human), UniProt P29317); assay: EPH-A2 kinase selectivity assay
Protocol: EPH-A2 (5-20 mU diluted in 50 mM Tris pH 7.5, 0.1 mM EGTA, 1 mg/ml BSA) is assayed against a substrate peptide (Poly Glut Tyr) in a final volume of 25.5 μl containing 50 mM Tris pH 7.5, 0.1 mg/ml substrate peptide, 10 mM magnesium acetate and 0.05 mM [33P-g-ATP] (50-1000 cpm/pmole) and incubated for 30 min at room temperature. Assays are stopped by addition of 5 μl of 0.5 M (3%) orthophosphoric acid and then harvested onto P81 Unifilter plates with a wash buffer of 50 mM orthophosphoric acid.

ULK1 = ULK1 (Homo sapiens (Human), UniProt O75385); assay: ULK1 kinase selectivity assay
PLK1 = PLK1 (Homo sapiens (Human), UniProt P53350); assay: PLK1 kinase selectivity assay
Protocol: PLK1 (5-20 mU diluted in 50 mM Tris pH 7.5, 0.1 mM EGTA, 0.1% b-mercaptoethanol, 1 mg/ml BSA, 100 μM Vanadate) is assayed against a substrate peptide ([…]) in a final volume of 25.5 μl containing 50 mM Tris pH 7.5, 0.05% b-mercaptoethanol, 10 μM Vanadate, 300 μM substrate peptide, 10 mM magnesium acetate and 0.005 mM [33P-g-ATP] (50-1000 cpm/pmole) and incubated for 30 min at room temperature. Assays are stopped by addition of 5 μl of 0.5 M (3%) orthophosphoric acid and then harvested onto P81 Unifilter plates with a wash buffer of 50 mM orthophosphoric acid.
PLK1 (5-20 mU diluted in 50 mM Tris pH 7.5, 0.1 mM EGTA, 0.1% b-mercaptoethanol, 1 mg/ml BSA, 100 µM Vanadate) is assayed against a substrate peptide ([…]) in a final volume of 25.5 μl containing 50 mM Tris pH 7.5, 0.05% b-mercaptoethanol, […], 300 μM substrate peptide, 10 mM magnesium acetate and 0.005 mM [33P-g-ATP] (50-1000 cpm/pmole) and incubated for 30 min at room temperature. Assays are stopped by addition of 5 μl of 0.5 M (3%) orthophosphoric acid and then harvested onto P81 Unifilter plates with a wash buffer of 50 mM orthophosphoric acid.

MNK2 = MNK2 (Homo sapiens (Human), UniProt Q9HBH9); assay: MNK2 kinase selectivity assay
Protocol: 5-20 mU of MNK2 (diluted in 50 mM Tris (pH 7.5), 0.1 mM EGTA, 1 mg/ml BSA, 0.1%, b-Mercaptoethanol) is assayed against substrate peptide (eIF4E) in a final volume of 25.5 μl containing 50 mM Tris (pH 7.5), 0.1 mM EGTA, 0.1%, b-Mercaptoethanol, 0.5 mg/ml substrate peptide, 10 mM magnesium acetate and 0.05 mM [33P-g-ATP](500-1000 cpm/pmole) and incubated for 30 mins at room temperature. Assays are stopped by addition of 5 μl of 0.5M (3%) orthophosphoric acid. Assays are harvested onto P81 Unifilter plates using a wash buffer of 50 mM orthophosphoric acid.

MEKK1 = MEKK1 (Homo sapiens (Human), UniProt Q13233); assay: MEKK1 kinase selectivity assay
Protocol: MEKK1 (5-20 mU diluted in 50 mM Tris pH 7.5, 0.1 mM EGTA, 0.1% 0-mercaptoethanol, 1 mg/ml BSA) is assayed against MBP in a final volume of 25.5 μl containing 50 mM Tris pH 7.5, 0.1 mM EGTA, 0.33 mg/ml MBP, 10 mM magnesium acetate and 0.02 mM [33P-γ-ATP] (50-1000 cpm/pmole) and incubated for 30 min at room temperature. Assays are stopped by addition of 5 μl of 0.5 M (3%) orthophosphoric acid and then harvested onto P81 Unifilter plates with a wash buffer of 50 mM orthophosphoric acid.

PAK4 = PAK4 (Homo sapiens (Human), UniProt O96013); assay: PAK4 kinase selectivity assay
Protocol: PAK4 (5-20 mU diluted in 50 mM Tris pH 7.5, 0.1 mM EGTA, 0.1% b-mercaptoethanol, 1 mg/ml BSA) is assayed against a substrate peptide ([…]) in a final volume of 25.5 μl containing 50 mM Tris pH 7.5, 0.05% b-mercaptoethanol, 300 μM substrate peptide, 10 mM magnesium acetate and 0.005 mM [33P-g-ATP] (50-1000 cpm/pmole) and incubated for 30 min at room temperature. Assays are stopped by addition of 5 μl of 0.5 M (3%) orthophosphoric acid and then harvested onto P81 Unifilter plates with a wash buffer of 50 mM orthophosphoric acid.

GSK3b = GSK3b (Homo sapiens (Human), UniProt P49841); assay: GSK3b kinase selectivity assay
Protocol: GSK3b (5-20 mU diluted in 20 mM MOPS pH 7.5, 1 mM EDTA, 0.01% Brij35, 5% glycerol, 0.1% b-mercaptoethanol, 1 mg/ml BSA) is assayed against Phospho-GS2 peptide ([…](PO4)EDEEE) in a final volume of 25.5 μl containing 8 mM MOPS pH 7.0, 0.2 mM EDTA, 20 μM Phospho GS2 peptide, 10 mM magnesium acetate and 0.005 mM [33P-g-ATP] (50-1000 cpm/pmole) and incubated for 30 min at room temperature. Assays are stopped by addition of 5 μl of 0.5 M (3%) orthophosphoric acid and then harvested onto P81 Unifilter plates with a wash buffer of 50 mM orthophosphoric acid.

Chain of GSK3b (P49841 whole entry, species assumed): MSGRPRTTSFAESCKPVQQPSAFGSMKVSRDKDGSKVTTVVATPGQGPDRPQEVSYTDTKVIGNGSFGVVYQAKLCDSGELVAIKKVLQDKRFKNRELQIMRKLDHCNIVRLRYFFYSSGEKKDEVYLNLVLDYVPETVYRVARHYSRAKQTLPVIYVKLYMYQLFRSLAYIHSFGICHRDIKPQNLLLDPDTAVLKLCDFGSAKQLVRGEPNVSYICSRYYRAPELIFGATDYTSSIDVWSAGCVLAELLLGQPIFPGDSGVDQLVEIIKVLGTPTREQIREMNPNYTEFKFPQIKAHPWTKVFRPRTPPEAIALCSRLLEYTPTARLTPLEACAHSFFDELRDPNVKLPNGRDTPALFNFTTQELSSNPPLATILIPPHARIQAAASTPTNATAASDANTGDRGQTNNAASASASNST
Chain of MNK2 (Q9HBH9 whole entry, species assumed): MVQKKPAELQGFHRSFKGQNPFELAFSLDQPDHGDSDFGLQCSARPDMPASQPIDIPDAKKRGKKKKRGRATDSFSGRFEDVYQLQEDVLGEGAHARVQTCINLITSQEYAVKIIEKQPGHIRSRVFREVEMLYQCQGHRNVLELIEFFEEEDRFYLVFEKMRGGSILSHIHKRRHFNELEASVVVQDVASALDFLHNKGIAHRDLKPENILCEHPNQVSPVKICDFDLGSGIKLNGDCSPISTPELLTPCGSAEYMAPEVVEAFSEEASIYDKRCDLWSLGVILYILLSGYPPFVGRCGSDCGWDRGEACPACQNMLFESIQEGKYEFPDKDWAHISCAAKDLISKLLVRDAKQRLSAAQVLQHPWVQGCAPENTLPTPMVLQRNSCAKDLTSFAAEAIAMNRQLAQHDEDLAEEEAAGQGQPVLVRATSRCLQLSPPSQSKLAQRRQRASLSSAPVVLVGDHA
Chain of PLK1 (P53350 whole entry, species assumed): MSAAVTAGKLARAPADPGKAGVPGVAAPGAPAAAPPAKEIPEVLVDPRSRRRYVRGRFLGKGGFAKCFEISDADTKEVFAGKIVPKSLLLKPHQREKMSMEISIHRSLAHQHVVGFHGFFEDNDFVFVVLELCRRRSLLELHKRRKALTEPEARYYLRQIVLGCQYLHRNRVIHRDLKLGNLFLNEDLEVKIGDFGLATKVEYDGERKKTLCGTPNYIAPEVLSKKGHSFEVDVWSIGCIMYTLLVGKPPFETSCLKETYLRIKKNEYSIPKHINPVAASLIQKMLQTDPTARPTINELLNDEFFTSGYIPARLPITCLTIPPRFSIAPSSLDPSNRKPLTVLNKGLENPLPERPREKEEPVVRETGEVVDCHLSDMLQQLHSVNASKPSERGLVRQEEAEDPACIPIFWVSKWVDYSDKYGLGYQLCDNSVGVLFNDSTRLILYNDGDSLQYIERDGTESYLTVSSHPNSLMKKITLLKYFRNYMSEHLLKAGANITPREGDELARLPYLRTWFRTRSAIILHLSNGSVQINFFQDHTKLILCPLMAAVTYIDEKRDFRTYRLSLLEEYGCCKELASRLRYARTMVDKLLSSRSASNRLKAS
Chain of MKK1 (Q02750 whole entry, species assumed): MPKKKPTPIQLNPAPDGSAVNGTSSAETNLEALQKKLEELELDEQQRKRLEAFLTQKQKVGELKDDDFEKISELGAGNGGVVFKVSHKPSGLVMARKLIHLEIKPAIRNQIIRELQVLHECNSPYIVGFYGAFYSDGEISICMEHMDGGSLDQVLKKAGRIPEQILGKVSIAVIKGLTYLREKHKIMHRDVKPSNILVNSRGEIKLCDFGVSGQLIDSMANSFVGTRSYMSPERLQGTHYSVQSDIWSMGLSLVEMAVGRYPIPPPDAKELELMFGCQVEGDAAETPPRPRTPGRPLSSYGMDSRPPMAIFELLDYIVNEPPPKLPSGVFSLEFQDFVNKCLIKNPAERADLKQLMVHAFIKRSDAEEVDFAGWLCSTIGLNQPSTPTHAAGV
Chain of ULK1 (O75385 whole entry, species assumed): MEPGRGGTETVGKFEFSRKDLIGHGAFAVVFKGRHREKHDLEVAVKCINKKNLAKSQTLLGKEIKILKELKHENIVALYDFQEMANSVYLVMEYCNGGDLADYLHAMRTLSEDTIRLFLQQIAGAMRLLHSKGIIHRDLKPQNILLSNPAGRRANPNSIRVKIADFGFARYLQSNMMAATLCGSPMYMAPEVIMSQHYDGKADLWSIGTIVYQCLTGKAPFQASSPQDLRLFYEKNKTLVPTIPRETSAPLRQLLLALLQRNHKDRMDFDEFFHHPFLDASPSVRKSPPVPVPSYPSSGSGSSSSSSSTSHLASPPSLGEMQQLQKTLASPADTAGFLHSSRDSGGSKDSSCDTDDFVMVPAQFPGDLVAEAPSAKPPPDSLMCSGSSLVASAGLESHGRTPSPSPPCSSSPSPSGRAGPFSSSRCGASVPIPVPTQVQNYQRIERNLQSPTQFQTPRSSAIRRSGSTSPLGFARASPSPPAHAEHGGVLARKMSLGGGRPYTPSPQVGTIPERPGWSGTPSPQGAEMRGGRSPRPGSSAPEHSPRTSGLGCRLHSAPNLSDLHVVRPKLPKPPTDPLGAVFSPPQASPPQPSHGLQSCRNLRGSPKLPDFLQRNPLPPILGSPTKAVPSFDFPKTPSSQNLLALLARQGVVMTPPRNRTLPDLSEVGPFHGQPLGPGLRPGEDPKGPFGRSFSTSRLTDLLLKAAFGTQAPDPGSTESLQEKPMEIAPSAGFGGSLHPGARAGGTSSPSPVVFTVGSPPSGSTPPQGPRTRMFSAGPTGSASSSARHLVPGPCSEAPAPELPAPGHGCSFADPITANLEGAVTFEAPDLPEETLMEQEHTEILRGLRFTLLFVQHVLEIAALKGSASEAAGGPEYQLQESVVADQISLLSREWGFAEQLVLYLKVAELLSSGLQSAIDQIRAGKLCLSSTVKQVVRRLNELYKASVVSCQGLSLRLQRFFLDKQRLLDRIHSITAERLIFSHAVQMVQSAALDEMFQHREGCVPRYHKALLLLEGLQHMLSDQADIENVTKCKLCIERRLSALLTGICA
Chain of MEKK1 (Q13233 whole entry, species assumed): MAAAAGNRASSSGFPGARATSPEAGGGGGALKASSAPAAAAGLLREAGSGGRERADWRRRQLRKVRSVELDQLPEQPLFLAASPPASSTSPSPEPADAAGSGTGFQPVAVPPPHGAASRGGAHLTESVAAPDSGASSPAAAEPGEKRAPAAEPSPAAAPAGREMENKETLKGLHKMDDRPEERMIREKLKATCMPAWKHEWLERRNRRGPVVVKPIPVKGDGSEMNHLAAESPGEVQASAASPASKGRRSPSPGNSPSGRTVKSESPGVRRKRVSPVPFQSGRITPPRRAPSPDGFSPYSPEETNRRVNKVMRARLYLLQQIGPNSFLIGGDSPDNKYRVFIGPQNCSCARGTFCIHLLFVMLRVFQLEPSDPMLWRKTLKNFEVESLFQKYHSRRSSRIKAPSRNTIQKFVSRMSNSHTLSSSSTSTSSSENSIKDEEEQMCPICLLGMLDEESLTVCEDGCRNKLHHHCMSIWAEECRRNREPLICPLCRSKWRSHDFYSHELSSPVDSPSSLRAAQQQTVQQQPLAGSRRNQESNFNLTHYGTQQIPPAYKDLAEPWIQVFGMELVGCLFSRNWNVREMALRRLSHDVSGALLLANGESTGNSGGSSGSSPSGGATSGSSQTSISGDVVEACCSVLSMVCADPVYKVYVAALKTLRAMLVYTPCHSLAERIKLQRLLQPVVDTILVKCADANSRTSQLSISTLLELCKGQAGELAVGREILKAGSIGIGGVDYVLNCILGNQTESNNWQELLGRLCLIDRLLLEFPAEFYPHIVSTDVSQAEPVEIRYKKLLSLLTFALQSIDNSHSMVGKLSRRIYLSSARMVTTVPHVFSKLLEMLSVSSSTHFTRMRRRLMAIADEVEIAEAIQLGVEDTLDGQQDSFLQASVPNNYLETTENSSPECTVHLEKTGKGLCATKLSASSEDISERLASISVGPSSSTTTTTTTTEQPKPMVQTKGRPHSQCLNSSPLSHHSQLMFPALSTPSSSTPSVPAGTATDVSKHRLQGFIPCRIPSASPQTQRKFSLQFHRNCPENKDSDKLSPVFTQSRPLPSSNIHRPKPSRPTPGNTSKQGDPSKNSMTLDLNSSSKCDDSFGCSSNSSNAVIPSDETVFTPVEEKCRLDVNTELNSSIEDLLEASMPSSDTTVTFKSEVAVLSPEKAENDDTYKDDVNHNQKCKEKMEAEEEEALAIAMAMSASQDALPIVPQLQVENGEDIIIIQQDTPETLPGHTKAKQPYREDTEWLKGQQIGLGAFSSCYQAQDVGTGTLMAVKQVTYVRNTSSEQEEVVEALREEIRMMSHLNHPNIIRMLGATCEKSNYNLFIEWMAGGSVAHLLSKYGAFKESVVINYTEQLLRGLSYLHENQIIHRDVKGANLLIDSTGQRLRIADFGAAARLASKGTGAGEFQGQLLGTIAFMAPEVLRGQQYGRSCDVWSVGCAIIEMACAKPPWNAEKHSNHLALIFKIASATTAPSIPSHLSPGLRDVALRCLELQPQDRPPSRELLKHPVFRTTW
Chain of PAK4 (O96013 whole entry, species assumed): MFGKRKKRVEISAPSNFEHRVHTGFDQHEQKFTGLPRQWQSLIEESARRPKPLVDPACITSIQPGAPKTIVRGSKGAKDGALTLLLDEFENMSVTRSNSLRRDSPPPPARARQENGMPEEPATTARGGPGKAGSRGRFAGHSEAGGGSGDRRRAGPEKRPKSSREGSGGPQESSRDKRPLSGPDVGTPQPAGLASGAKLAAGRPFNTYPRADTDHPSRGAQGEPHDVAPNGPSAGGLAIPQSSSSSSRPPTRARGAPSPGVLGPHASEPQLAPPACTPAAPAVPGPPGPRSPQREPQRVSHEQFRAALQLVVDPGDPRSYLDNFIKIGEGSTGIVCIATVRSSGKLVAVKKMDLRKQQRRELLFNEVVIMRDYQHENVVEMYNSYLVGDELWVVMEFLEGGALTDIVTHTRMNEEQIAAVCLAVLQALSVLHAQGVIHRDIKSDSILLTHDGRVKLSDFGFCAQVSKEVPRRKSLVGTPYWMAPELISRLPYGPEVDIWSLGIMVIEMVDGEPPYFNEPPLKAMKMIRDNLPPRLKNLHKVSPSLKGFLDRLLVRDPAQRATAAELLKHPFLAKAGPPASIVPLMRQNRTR

Compound | percentage inhibition of MKK1 (MKK1) [percentage] | percentage inhibition of EPH-A2 (EPH-A2) [percentage] | percentage inhibition of ULK1 (ULK1) [percentage] | percentage inhibition of PLK1 (PLK1) [percentage] | percentage inhibition of MNK2 (MNK2) [percentage] | percentage inhibition of MEKK1 (MEKK1) [percentage] | percentage inhibition of PAK4 (PAK4) [percentage] | percentage inhibition of GSK3b (GSK3b) [percentage]
c1cc2[nH]nc3c2c(n1)N(C1CCC1)CCC3 [Example 22, 6-cyclobutyl-6,7,8,9-tetrahydro-2H-1,2,5,6-tetraazabenzo[cd]azulene] | 15 | 0 | 14 | 4 | 0 | 0 | 6 | 16
c1cc2[nH]nc3c2c(n1)N(C1CCCC1)CCC3 [Example 23, 6-cyclopentyl-6,7,8,9-tetrahydro-2H-1,2,5,6-tetraazabenzo[cd]azulene] | 0 | 0 | 0 | 3 | 0 | 0 | 0 | 0
c1cc2[nH]nc3c2c(n1)N(C1CCOCC1)CCC3 [Example 29, 6-(tetrahydro-2H-pyran-4-yl)-6,7,8,9-tetrahydro-2H-1,2,5,6-tetraazabenzo[cd]azulene] | 21 | 0 | 5 | 0 | 0 | 0 | 7 | 0
CN1CCC(N2Cc3ccccc3-c3n[nH]c4ccnc2c34)CC1 [Example 55] | 65 | 0 | 20 | 28 | 40 | 5 | 20 | 0
CC(C)n1ncc2c1CN(C1CCN(C)CC1)c1nccc3[nH]nc-2c13 [Example 68] | 31 | 0 | 30 | 21 | 18 | 0 | 25 | 0

From patent US10918645B2 (LIFEARC, priority 2016, dated 2021)
